The test system of one test is tubules of M1 cells. Description: Contractility of renal tubule model lined by M1 cells (kymogram analysis of time-lapse images). The class given is cell-based, mouse. The following applies: for relative contraction (ratio of measured contraction to tubule diameter): percent of untreated tubule diameter, FIG. 3C. The procedure: (§1) Time-lapse recordings of kidney epithelial cells in hydrogel tunnels were performed on a Zeiss Axio Observer Z1 ® inverted microscope with a 10× Plan Neofluar® objective. The microscope was equipped with a Marzhauser SCAN-IM powered stage and a Zeiss AxioCam® MRm CCD camera. Cell cultures established in flow chambers within cell culture dishes (Greiner) were continuously kept in a stage-incubator (Cell Movie) providing 37° C. and humidified 5% CO2 atmosphere. Stage positioning, focusing and image collection were all controlled by Zeiss Axiovision® 4.8 software and a custom-made experiment manager software module. Phase contrast images were collected consecutively in every 10 minutes from several microscopic fields for up to 4 days. Alternatively, for real-time video microscopy the images were captured at a rate of 20 frames per second.
Contraction of renal tubule models were analyzed on the basis of image series captured by phase-contrast time-lapse video microscopy. Using NIH ImageJ software's Reslice function image series were resliced along a cross sectional line across the tubule resulting in a kymogram.
For inhibition of actomyosin contractility, Y27632, a cell-permeable Rho kinase inhibitor, (Merck Millipore (9) was applied. The inhibitor was dissolved in water and kept in 10 mM stock solutions and used at 50 μM final concentration. For control treatments, an identical volume of water was applied.
(§2) The inhibitor was applied at 50 μM final concentration in the flow chamber without circulation, resulting in dilation of the tunnel within 30 minutes. […] Both the dilation and contraction responses were quantitatively analyzed by constructing kymograms from the phase-contrast time-lapse image series as shown in FIG. 3A. In a collagen I gel, the diameter of 250 μm wide M1- or MDCK-lined tunnels contracted by 20 or 15 μm, respectively as shown in FIG. 3B. The relative contraction (as defined by the ratio of the measured contraction to tubule diameter) is larger for tubules with smaller diameters: while the 250 μm tubule contracts almost […] of its diameter, a 600 μm large tubule contracts only about 5% as shown in FIG. 3C.
FIGS. 3A-3C show the contractility of model renal tubules. FIG. 3A includes a representative kymogram along a perpendicular cross section of a tubule of M1 cells in collagen I gel matrix. Time progresses from top to bottom, a 10h long interval is indicated by the arrow. The duration of treatment with 50 μM Y27632 Rho kinase inhibitor is indicated with the red line (scale bar: 50 μm). FIGS. 3B-3C include graphs illustrating quantitative analysis of tubule contractility. […] Error bars represent SEM.

For another test, the system named is tubules of MDCK cells. The test is described as follows: Contractility of renal tubule model lined by MDCK cells (kymogram analysis of time-lapse images). The class given is cell-based, canine. Conditions: 250 μm wide MDCK-lined tunnels in collagen I gel; 50 μM inhibitor then washout; FIG. 3B, n=2. The procedure:
as §1, with “Phase contrast images were collected consecutively in every 10 minutes from several microscopic fields for up to 4 days. Alternatively, for real-time video microscopy the images were captured at a rate of 20 frames per second.” left out
Contraction of renal tubule models were analyzed on the basis of image series captured by phase-contrast time-lapse video microscopy. […]
as §2, with “In a collagen I gel, the diameter of 250 μm wide M1- or MDCK-lined tunnels contracted by 20 or 15 μm, respectively as shown in FIG. 3B.” left out, “3C. […]” for “3C.”

Molecules are shown by their SMILES.

As for `C[C@@H](N)[C@H]1CC[C@H](C(=O)Nc2ccncc2)CC1` [Y27632], in the test on tubules of M1 cells (50 μM final concentration in the flow chamber without circulation, cell line not given, FIG. 3A kymogram is M1 cells in collagen I gel), the “time to dilation of the tunnel” value is at most 30 min. Besides, the “relative contraction (ratio of measured contraction to tubule diameter)” value is reported as about 13% with tubules of M1 cells (250 μm tubule of M1 cells) and “about 5%” in the test on tubules of M1 cells (600 μm tubule of M1 cells). Further, the “contraction of tunnel diameter” value in the test with tubules of M1 cells (250 μm wide M1-lined tunnels in collagen I gel, 50 μM inhibitor then washout, FIG. 3B, n=2) is 20 μm; in the test with tubules of MDCK cells, 15 μm. Moreover, the “effect of subsequent washout of the inhibitor on the tunnel” value in the test with tubules of M1 cells (after 50 μM treatment, washout) is given as “gradual contraction of the tunnel to approximately its initial state”.

The record behind these values is US12281333B2, “Renal tube assay device and methods of manufacture and use” (The University of Kansas, priority 2020, dated 2025).
